Here are results for 1 compound from BindingDB's records for doi:10.1016/j.bioorg.2017.03.015 (Silesian University of Technology, 2017).

The experiment concerns the target T1, Beta-1,4-galactosyltransferase 1 (Bos taurus, UniProt P08037).
T1 sequence (P08037 whole entry): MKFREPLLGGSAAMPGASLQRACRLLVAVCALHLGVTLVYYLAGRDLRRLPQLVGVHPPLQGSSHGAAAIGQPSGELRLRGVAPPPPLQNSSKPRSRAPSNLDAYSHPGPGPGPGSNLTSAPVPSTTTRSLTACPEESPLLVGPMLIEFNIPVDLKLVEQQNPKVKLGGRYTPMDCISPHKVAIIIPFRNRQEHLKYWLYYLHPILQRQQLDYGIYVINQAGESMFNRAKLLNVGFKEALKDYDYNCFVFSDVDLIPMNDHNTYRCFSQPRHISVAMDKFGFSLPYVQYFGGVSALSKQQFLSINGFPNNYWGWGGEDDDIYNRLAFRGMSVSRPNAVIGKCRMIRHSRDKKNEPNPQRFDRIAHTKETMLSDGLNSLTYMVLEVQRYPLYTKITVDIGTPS
In words: β-1,4-Galactosyltransferase I Assay. As to conditions: pH 5.4; 30 °C. On the procedure: β4GalT activity was assayed using UDP-Gal as glycosyl donor and (6-esculetinyl) β-D-glucopyranoside (esculine) as glycosyl acceptor. Assays were performed in a total volume of 200 μL. The reaction mixtures contained reagents in the following final concentrations: 50 mM Hepes buffer (pH 5.4), 10 mM MnCl2, 2.0 mg/mL BSA, 200 μM esculine, 40 μM UDP-Gal, 10 μL MeOH and potential inhibitors 1-6 at 0.8 mM concentration. The enzymatic reactions were initiated by the addition of 1 mU β4GalT and incubated at 30 °C for 60 min. Inactivation was quickly done by placing of the reaction solutions for 3 min in a thermo block set to 90 °C. Thesolutions were diluted with water (300 μL) and centrifuged for 20 min, filtered through M.E. Cellulose filter (0.2 μm × 13 mm) and the filtrate was injected into RP-HPLC system.

Structures are written as SMILES. pIC50: −log10 of the molar value.

As a reminder, the pIC50 is −log10 of the IC50, conventionally taken in molar units. Compound `O=c1ccn([C@@H]2O[C@H](Cn3cc(CO[C@@H]4OC(CO)[C@@H](O)C(O)C4O)nn3)C(O)C2O)c(=O)[nH]1` (stereo partly drawn) [5'-deoxy-5'-[4-(β-D-glucopyranosyloxymethyl)-1,2-3-triazol-1-yl]uridine (5)] showed a pIC50 of 3.14.
